pIC50: −log10 of the molar value.
How the values were obtained:
[1] = tested on: HT29 cells; assay: Antiproliferative activity against HT29 cells (Cell Titer-Lumi, ATP content); assay type: cell-based; details: Homo sapiens, HT-29, 72 after compound addition, read-out: HT-29 cells Anti-proliferative activity (IC50 for the inhibition against HT-29 cell growth)
Summary of the method: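 3000 cells per well, allowed to adhere overnight, then exposed to a gradient dilution of compound for 72 (units as printed). Cellular ATP read by luminescence (Cell Titer-Lumi) as a growth measure; IC50 for growth inhibition calculated.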

[2] = target: T1, Wee-1 kinase (Homo sapiens, UniProt P30291); assay: Inhibitory activity against Wee-1 kinase (Lanthra Screen Wee-1 kinase kit, Tracer 178); assay type: binding; details: Wee-1 kinase 5 nM, Tracer 178 50 nM, 1 h room temperature
T1 construct: purchased Invitrogen
Summary of the method: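 LanthaScreen binding format: Wee-1 kinase (5 nM final) with Eu-anti-GST antibody (2 nM final) and kinase Tracer 178 (50 nM final), compounds serially diluted in DMSO. 1 h at room temperature before reading. IC50 relative to DMSO control.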

T1 sequence (P30291 whole entry): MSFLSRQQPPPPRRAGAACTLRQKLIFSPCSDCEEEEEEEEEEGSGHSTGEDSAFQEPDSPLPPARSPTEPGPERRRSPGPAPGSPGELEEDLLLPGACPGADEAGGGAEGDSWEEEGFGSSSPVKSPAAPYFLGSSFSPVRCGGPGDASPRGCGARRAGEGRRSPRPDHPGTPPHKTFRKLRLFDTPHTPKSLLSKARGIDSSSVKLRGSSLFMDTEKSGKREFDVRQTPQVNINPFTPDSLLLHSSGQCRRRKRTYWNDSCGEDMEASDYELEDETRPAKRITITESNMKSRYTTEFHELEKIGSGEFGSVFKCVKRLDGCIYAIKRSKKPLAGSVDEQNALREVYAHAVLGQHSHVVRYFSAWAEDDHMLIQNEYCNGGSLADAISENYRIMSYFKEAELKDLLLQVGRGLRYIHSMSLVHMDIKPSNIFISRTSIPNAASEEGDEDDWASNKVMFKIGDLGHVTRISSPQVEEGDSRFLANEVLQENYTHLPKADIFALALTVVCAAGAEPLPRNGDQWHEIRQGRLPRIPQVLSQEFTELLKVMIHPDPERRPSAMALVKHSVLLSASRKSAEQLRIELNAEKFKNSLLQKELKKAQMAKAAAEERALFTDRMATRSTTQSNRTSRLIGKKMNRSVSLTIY

Row | Structure (SMILES) | pIC50 [1] | pIC50 [2]
1 | C=CCn1c(=O)c2cnc(Nc3ccc(N4C[C@@H](C)N[C@@H](C)C4)c(Cl)c3)nc2n1-c1ccc(=O)n(C(C)C)n1 [Compound 120] | ≥ 6.00 | ≥ 7.52
2 | C=CCn1c(=O)c2cnc(Nc3ccc(C4(C)CCCNC4)cc3)nc2n1-c1ccc(=O)n(C(C)C)n1 (stereo not shown) [Compound 202] | ≥ 6.00 | ≥ 7.52
3 | C=CCn1c(=O)c2cnc(Nc3ccc(C4CCN(C)CC4)c(CC(F)(F)F)c3)nc2n1-c1ccc(=O)n(C(C)C)n1 [Compound 199] | ≥ 6.00 | ≥ 7.52
4 | C=CCn1c(=O)c2cnc(Nc3cc(N4CCN(C(C)C)CC4)c4ccn(C)c4c3)nc2n1-c1ccc(=O)n(C(C)C)n1 [Compound 256] | ≥ 6.00 | ≥ 7.52
5 | C=CCn1c(=O)c2cnc(Nc3ccc(N4CC5(CCNC5)C4)c(C)c3)nc2n1-c1ccc(=O)n(C(C)C)n1 [Compound 161] | 5.52 to 6.00 | ≥ 7.52
6 | C=CCn1c(=O)c2cnc(Nc3cc(F)cc(C4CCNCC4)c3)nc2n1-c1ccc(=O)n(C(C)C)n1 [Compound 208] | ≥ 6.00 | ≥ 7.52
7 | C=CCn1c(=O)c2cnc(Nc3ccc4c(c3)C(C)(C)CN(C(C)C)C4)nc2n1-c1ccc(=O)n(C(C)C)n1 [Compound 245] | ≥ 6.00 | ≥ 7.52
8 | C=CCn1c(=O)c2cnc(Nc3ccc(C4CCNCC4)c(C)c3)nc2n1-c1ccc(=O)n(C(C)C)n1 [Compound 192] | ≥ 6.00 | ≥ 7.52
9 | C=CCn1c(=O)c2cnc(Nc3ccc(N4CC(N5CCC5)C4)c(C)c3)nc2n1-c1ccc(=O)n(C(C)C)n1 [Compound 81] | ≥ 6.00 | ≥ 7.52
10 | C=CCn1c(=O)c2cnc(Nc3ccc(N4CCN(CC(F)(F)F)CC4)cc3)nc2n1-c1ccc(=O)n(C(C)C)n1 [Compound 39] | ≥ 6.00 | ≥ 7.52
11 | C=CCn1c(=O)c2cnc(Nc3ccc(N4C[C@@H](C)N(C)[C@@H](C)C4)c(Cl)c3)nc2n1-c1ccc(=O)n(C(C)C)n1 [Compound 121] | ≥ 6.00 | ≥ 7.52
12 | CN1CCN(c2ccc(Nc3ncc4c(=O)n(C5CC5)n(-c5ccc(=O)n(C(C)(C)C)c5)c4n3)cc2)CC1 [Compound 338] | ≥ 6.00 | ≥ 7.52
13 | C=CCn1c(=O)c2cnc(Nc3cc(OC)c(N4CCN(C)CC4)cn3)nc2n1-c1ccc(=O)n(C(C)C)n1 [Compound 249] | ≥ 6.00 | ≥ 7.52
14 | C=CCn1c(=O)c2cnc(Nc3ccc(N4CCN(C)[C@H](C)C4)c(C)c3)nc2n1-c1ccc(=O)n(C(C)C)n1 [Compound 134] | ≥ 6.00 | ≥ 7.52
15 | C=CCn1c(=O)c2cnc(Nc3ccc(OCCN(C)C)cc3)nc2n1-c1ccc(=O)n(C(C)C)n1 [Compound 216] | ≥ 6.00 | ≥ 7.52
16 | C=CCn1c(=O)c2cnc(Nc3ccc(N4CC5CCC(C4)N5)c(C)c3)nc2n1-c1ccc(=O)n(C(C)C)n1 [Compound 137] | 5.52 to 6.00 | ≥ 7.52
17 | C=CCn1c(=O)c2cnc(Nc3ccc(N4CCC(N5CCC(F)(F)CC5)CC4)cc3)nc2n1-c1ccc(=O)n(C(C)C)n1 [Compound 151] | ≥ 6.00 | ≥ 7.52
18 | C=CCn1c(=O)c2cnc(Nc3ccc(C4(C)CCCN(C)C4)cc3)nc2n1-c1ccc(=O)n(C(C)C)n1 (stereo not shown) [Compound 203] | ≥ 6.00 | ≥ 7.52
19 | CN1Cc2cc(Nc3ncc4c(=O)n(C5CC5)n(-c5ccc(=O)n(C(C)(C)C)c5)c4n3)ccc2C2(CC2)C1 [Compound 341] | ≥ 6.00 | ≥ 7.52
20 | C=CCn1c(=O)c2cnc(Nc3cc(N4CCC(N(C)C)CC4)c4ccn(C5CC5)c4c3)nc2n1-c1ccc(=O)n(C(C)C)n1 [Compound 260] | ≥ 6.00 | ≥ 7.52
21 | C=CCn1c(=O)c2cnc(Nc3ccc4c(c3)CN(C)CC43CC3)nc2n1-c1cc(F)c(=O)n(C(C)C)c1 [Compound 314] | ≥ 6.00 | ≥ 7.52
22 | C=CCn1c(=O)c2cnc(Nc3ccc(N4CCN(C)CC4)c(F)c3)nc2n1-c1ccc(=O)n(C(C)C)n1 [Compound 44] | ≥ 6.00 | ≥ 7.52
23 | C=CCn1c(=O)c2cnc(Nc3ccc(N4CCC(N(C)C)CC4)c(OC)c3)nc2n1-c1ccc(=O)n(C(C)C)n1 [Compound 100] | ≥ 6.00 | ≥ 7.52
24 | C=CCn1c(=O)c2cnc(Nc3ccc(N4CCC5(CN(C)C5)C4)cc3)nc2n1-c1ccc(=O)n(C(C)C)n1 [Compound 172] | ≥ 6.00 | ≥ 7.52
25 | C=CCn1c(=O)c2cnc(Nc3cc(C)cc(C4CCNCC4)c3)nc2n1-c1ccc(=O)n(C(C)C)n1 [Compound 206] | ≥ 6.00 | ≥ 7.52
26 | C=CCn1c(=O)c2cnc(Nc3ccc(N4C[C@@H](C)N[C@@H](C)C4)c(C)c3)nc2n1-c1ccc(=O)n(C(C)C)n1 [Compound 118] | ≥ 6.00 | ≥ 7.52
27 | C=CCn1c(=O)c2cnc(Nc3ccc(C4CCNCC4)c(C(F)(F)F)c3)nc2n1-c1ccc(=O)n(C(C)C)n1 [Compound 196] | ≥ 6.00 | ≥ 7.52

Row | Structure (SMILES) | pIC50 [1] | pIC50 [2]
28 | C=CCn1c(=O)c2cnc(Nc3ccc(N4CCN(C)CC4)cc3)nc2n1-c1ccc(=O)n(CC(C)(C)C)n1 [Compound 6] | 5.52 to 6.00 | 7.00 to 7.52
29 | C=CCn1c(=O)c2cnc(Nc3ccc(N4CCN(C)CC4)cc3)nc2n1-c1ccc(=O)n(C2CCC2)n1 [Compound 12] | ≥ 6.00 | ≥ 7.52
30 | C=CCn1c(=O)c2cnc(Nc3ccc(N4CCN(C)CC4)cc3)nc2n1-c1ccc(=O)n(C)n1 [Compound 1, 2-allyl-1-(1-methyl-6-oxo-1,6-dihydropyridazin-3-yl)-6-((4-(4-methylpiperazin-1-yl)phenyl)amino)-1,2-dihydro-3H-pyrazolo[3,4-d]pyrimidin-3-one] | < 5.52 | < 7.00
31 | C=CCn1c(=O)c2cnc(Nc3ccc(N4CCN(C)CC4)cc3)nc2n1-c1ccc(=O)n(CC2CCC2)n1 [Compound 17] | 5.52 to 6.00 | 7.00 to 7.52
32 | C=CCn1c(=O)c2cnc(Nc3ccc4c(c3)C3(CC3)CN(C(C)C)C4)nc2n1-c1ccc(=O)n(C(C)C)n1 [Compound 236] | ≥ 6.00 | ≥ 7.52
33 | CCn1c(=O)c2cnc(Nc3ccc(C4CCN(C)CC4)c(C)c3)nc2n1-c1ccc(=O)n(C(C)C)c1 [Compound 301] | ≥ 6.00 | ≥ 7.52
34 | C=CCn1c(=O)c2cnc(Nc3ccc(N4CC[C@H](N(C)C)C4)c(OC)c3)nc2n1-c1ccc(=O)n(C(C)C)n1 [Compound 94] | ≥ 6.00 | ≥ 7.52
35 | C=CCn1c(=O)c2cnc(Nc3ccc(N4CC5(CCN(C)C5)C4)c(OC)c3)nc2n1-c1ccc(=O)n(C(C)C)n1 [Compound 165] | ≥ 6.00 | ≥ 7.52
36 | C=CCn1c(=O)c2cnc(Nc3ccc(N4CCC5(CCNCC5)CC4)c(OC)c3)nc2n1-c1ccc(=O)n(C(C)C)n1 [Compound 183] | ≥ 6.00 | ≥ 7.52
37 | CCn1c(=O)c2cnc(Nc3ccc(N4CCN(C)CC4)c(C)c3)nc2n1-c1ccc(=O)n(C(C)(C)C)n1 [Compound 285] | ≥ 6.00 | ≥ 7.52
38 | C=CCn1c(=O)c2cnc(Nc3ccc(N4CCC5(CC4)CNC5)cc3)nc2n1-c1ccc(=O)n(C(C)C)n1 [Compound 175] | 5.52 to 6.00 | ≥ 7.52
39 | C=CCn1c(=O)c2cnc(Nc3ccc(N4CC5(CCN(C)C5)C4)cc3)nc2n1-c1ccc(=O)n(C(C)C)n1 [Compound 163] | ≥ 6.00 | ≥ 7.52
40 | C=CCn1c(=O)c2cnc(Nc3ccc(N4CCC(C)(N)CC4)c(OC)c3)nc2n1-c1ccc(=O)n(C(C)C)n1 [Compound 109] | ≥ 6.00 | ≥ 7.52
41 | C=CCn1c(=O)c2cnc(Nc3ccc(N4CCC5(CCN(C)CC5)CC4)c(OC)c3)nc2n1-c1ccc(=O)n(C(C)C)n1 [Compound 186] | ≥ 6.00 | ≥ 7.52
42 | C=CCn1c(=O)c2cnc(Nc3ccc(N4CC[C@@H](N(C)C)C4)c(C)c3)nc2n1-c1ccc(=O)n(C(C)C)n1 [Compound 96] | ≥ 6.00 | ≥ 7.52
43 | Cc1cc(Nc2ncc3c(=O)n(C4CC4)n(-c4ccc(=O)n(C(C)C)n4)c3n2)ccc1N1CCN(C)CC1 [Compound 272] | ≥ 6.00 | ≥ 7.52
44 | C=CCn1c(=O)c2cnc(Nc3cc(C)c(N4CCNCC4)c(F)c3)nc2n1-c1ccc(=O)n(C(C)C)n1 [Compound 55] | ≥ 6.00 | ≥ 7.52
45 | C=CCn1c(=O)c2cnc(Nc3ccc(N4CCC(N5CCOCC5)CC4)c(C)c3)nc2n1-c1ccc(=O)n(C(C)C)n1 [Compound 149] | ≥ 6.00 | ≥ 7.52
46 | C=CCn1c(=O)c2cnc(Nc3ccc4c(c3)CCN(C(C)C)C4)nc2n1-c1ccc(=O)n(C(C)C)n1 [Compound 230] | ≥ 6.00 | ≥ 7.52
47 | C=CCn1c(=O)c2cnc(Nc3ccc(N4CCC(N5CCCCC5)CC4)c(C)c3)nc2n1-c1ccc(=O)n(C(C)C)n1 [Compound 146] | ≥ 6.00 | ≥ 7.52
48 | C=CCn1c(=O)c2cnc(Nc3ccc(N4CCC(N5CCN(C)CC5)CC4)cc3)nc2n1-c1ccc(=O)n(C(C)C)n1 [Compound 142] | ≥ 6.00 | ≥ 7.52
49 | C=CCn1c(=O)c2cnc(Nc3ccc4c(c3)CNCC4)nc2n1-c1ccc(=O)n(C(C)C)n1 [Compound 225] | ≥ 6.00 | ≥ 7.52
50 | C=CCn1c(=O)c2cnc(Nc3cc(Cl)c(N4CCN(C)CC4)c(Cl)c3)nc2n1-c1ccc(=O)n(C(C)C)n1 [Compound 62] | ≥ 6.00 | ≥ 7.52
51 | CC(C)n1nc(-n2c3nc(Nc4ccc5c(c4)CN(C)CC54CC4)ncc3c(=O)n2C(C)C)ccc1=O [Compound 280] | ≥ 6.00 | ≥ 7.52
52 | C=CCn1c(=O)c2cnc(Nc3ccc(N4CCN(C5COC5)CC4)cc3)nc2n1-c1ccc(=O)n(C(C)C)n1 [Compound 35] | ≥ 6.00 | ≥ 7.52
53 | C=CCn1c(=O)c2cnc(Nc3ccc4c(c3)CNCC43CC3)nc2n1-c1ccc(=O)n(C(C)C)n1 [Compound 231] | ≥ 6.00 | ≥ 7.52
